Calls of active or inactive are those of the source. The rule behind the calls is not given here.
Legend:
[1] = target: T1, Glycogen synthase kinase-3 beta (Homo sapiens, UniProt P49841); test: Reversible inhibition of human recombinant GSK3beta using GS2 as substrate after 10 mins by Glow type luminescence analysis
Target sequence in this assay (P49841 whole entry, looked up): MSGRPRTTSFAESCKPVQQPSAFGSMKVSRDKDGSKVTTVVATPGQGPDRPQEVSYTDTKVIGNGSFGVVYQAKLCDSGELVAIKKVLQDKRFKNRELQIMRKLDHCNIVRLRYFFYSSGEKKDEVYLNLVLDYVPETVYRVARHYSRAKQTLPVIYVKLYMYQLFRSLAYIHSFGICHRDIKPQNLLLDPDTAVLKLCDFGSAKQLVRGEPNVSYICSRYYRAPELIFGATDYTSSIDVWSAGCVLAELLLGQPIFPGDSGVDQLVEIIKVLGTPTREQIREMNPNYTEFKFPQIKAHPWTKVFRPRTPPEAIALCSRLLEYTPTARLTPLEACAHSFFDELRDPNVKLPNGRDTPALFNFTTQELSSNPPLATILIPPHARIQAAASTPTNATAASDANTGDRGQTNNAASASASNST

[2] = target: T1, Glycogen synthase kinase-3 beta; test: Inhibition of human recombinant GSK3beta incubated for 30 mins by Kinase Glo luminescent kinase assay
Target sequence in this assay (P49841 whole entry): as the sequence (P49841 whole entry, looked up) above

[3] = target: T1, Glycogen synthase kinase-3 beta; test: Non-competitive inhibition of human recombinant GSK3beta using GS2 as substrate after 10 mins by Glow type luminescence analysis in presence of 1 uM ATP
Target sequence in this assay (P49841 whole entry, looked up): as above

[4] = target: T1, Glycogen synthase kinase-3 beta; test: Non-competitive inhibition of human recombinant GSK3beta using GS2 as substrate after 10 mins by Glow type luminescence analysis
Target sequence in this assay (P49841 whole entry, looked up): as above

[5] = target: T1, Glycogen synthase kinase-3 beta; test: Non-competitive inhibition of human recombinant GSK3beta using GS2 as substrate after 10 mins by Glow type luminescence analysis in presence of 1 to 50 uM ATP
Target sequence in this assay (P49841 whole entry, looked up): as above

## CCCCCCCCCCCC(=O)NNC(=O)c1c(O)c2ccccc2n(CC)c1=O
[1]
  inhibition: Active
[2]
  IC50: 3.01 µM
[3]
  inhibition: Active
[4]
  inhibition: Active
[5]
  inhibition: Active

Source: ChEMBL document CHEMBL2034862, “Exploring the binding sites of glycogen synthase kinase 3. Identification and characterization of allosteric modulation cavities” (J Med Chem, 2011)
